# Measured values from ChEMBL document CHEMBL1139660, “Imidazo[1,2-b][1,2,4]triazines as alpha2/alpha3 subtype selective GABA A agonists for the treatment of anxiety” (Bioorg Med Chem Lett, 2006).
# pKi: −log10 of the molar value.
# What was measured:
# [1] = molecular target: T1, GABA-A receptor; alpha-3/beta-3/gamma-2 (Homo sapiens, UniProt P18507+P28472+P34903); test: Displacement of [3H]Ro 15-1788 from recombinant human GABA-Aalpha3 receptor plus beta-3-gamma-2 expressed in L(tk-) cells; assay type: cell-based
# T1 sequence (P18507 whole entry): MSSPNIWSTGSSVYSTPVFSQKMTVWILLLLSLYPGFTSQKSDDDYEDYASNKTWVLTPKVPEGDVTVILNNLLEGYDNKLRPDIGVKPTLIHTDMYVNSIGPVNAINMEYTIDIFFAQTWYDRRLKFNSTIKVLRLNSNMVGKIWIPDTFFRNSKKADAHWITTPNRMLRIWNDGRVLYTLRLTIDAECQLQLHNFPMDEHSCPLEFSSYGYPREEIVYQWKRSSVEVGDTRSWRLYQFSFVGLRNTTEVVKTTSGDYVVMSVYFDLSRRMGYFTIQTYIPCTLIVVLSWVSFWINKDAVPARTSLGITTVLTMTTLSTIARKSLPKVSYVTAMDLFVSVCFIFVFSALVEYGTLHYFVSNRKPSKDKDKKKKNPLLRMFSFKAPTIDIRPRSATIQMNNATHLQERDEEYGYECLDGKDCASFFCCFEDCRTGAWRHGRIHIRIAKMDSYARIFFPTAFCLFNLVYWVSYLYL
# T1 sequence (P28472 whole entry): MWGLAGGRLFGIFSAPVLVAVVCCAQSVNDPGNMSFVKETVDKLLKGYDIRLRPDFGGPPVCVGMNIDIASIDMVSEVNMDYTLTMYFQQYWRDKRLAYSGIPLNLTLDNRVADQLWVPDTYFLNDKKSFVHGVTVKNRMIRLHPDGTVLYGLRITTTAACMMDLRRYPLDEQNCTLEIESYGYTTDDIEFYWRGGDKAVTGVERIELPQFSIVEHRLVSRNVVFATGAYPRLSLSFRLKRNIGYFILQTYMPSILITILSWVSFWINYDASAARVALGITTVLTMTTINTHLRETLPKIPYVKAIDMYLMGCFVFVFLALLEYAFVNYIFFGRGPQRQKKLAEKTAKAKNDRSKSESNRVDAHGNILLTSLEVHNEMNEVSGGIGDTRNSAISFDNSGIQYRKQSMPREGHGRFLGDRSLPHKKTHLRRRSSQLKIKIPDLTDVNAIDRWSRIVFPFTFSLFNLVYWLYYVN
# T1 sequence (P34903 whole entry): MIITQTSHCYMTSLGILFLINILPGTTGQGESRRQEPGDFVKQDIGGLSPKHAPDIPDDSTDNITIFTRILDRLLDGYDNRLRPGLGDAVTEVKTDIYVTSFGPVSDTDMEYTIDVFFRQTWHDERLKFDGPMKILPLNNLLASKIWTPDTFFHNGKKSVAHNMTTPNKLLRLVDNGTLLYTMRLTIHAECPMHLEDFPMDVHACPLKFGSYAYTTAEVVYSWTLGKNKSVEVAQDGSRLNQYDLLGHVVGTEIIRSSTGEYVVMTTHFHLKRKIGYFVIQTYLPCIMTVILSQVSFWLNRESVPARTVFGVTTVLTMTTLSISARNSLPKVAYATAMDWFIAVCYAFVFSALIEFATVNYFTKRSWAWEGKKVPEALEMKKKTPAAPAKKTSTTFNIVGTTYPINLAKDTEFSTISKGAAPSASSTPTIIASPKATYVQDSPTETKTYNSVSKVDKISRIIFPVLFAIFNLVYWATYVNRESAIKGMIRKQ
# [2] = molecular target: T2, GABA-A receptor; alpha-3/beta-3/gamma-2 (Homo sapiens) (UniProt P18507+P28472+P34903); test: Efficacy against recombinant human GABA-Aalpha3 receptor plus beta-3-gamma-2 expressed in L(tk-) cells by modulation of chloride ion flux relative to chlordiazepoxide; assay type: functional, cell-based
# [3] = molecular target: T3, GABA-A receptor; alpha-5/beta-3/gamma-2 (Homo sapiens, UniProt P18507+P28472+P31644); test: Displacement of [3H]Ro 15-1788 from recombinant human GABA-Aalpha5 receptor plus beta-3-gamma-2 expressed in L(tk-) cells; assay type: cell-based
# T3 sequence (P18507 whole entry): T1 sequence (P18507 whole entry)
# T3 sequence (P28472 whole entry): T1 sequence (P28472 whole entry)
# T3 sequence (P31644 whole entry): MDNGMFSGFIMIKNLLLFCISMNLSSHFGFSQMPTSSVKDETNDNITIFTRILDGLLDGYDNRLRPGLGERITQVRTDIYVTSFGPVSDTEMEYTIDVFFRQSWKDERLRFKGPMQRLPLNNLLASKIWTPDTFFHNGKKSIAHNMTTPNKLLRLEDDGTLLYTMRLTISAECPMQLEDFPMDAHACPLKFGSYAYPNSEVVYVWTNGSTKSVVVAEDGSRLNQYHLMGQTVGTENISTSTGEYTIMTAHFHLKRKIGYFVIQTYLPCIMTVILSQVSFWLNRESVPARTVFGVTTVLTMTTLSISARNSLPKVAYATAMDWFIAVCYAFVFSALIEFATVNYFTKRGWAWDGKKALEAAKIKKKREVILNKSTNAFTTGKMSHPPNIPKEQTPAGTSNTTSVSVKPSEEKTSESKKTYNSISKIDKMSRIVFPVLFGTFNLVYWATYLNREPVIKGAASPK
# [4] = molecular target: T4, GABA-A receptor; alpha-1/beta-3/gamma-2 (Homo sapiens, UniProt P14867+P18507+P28472); test: Displacement of [3H]Ro 15-1788 from recombinant human GABA-Aalpha1 receptor plus beta3gamma2 expressed in mouse L(tk-) cells; assay type: cell-based
# T4 sequence (P14867 whole entry): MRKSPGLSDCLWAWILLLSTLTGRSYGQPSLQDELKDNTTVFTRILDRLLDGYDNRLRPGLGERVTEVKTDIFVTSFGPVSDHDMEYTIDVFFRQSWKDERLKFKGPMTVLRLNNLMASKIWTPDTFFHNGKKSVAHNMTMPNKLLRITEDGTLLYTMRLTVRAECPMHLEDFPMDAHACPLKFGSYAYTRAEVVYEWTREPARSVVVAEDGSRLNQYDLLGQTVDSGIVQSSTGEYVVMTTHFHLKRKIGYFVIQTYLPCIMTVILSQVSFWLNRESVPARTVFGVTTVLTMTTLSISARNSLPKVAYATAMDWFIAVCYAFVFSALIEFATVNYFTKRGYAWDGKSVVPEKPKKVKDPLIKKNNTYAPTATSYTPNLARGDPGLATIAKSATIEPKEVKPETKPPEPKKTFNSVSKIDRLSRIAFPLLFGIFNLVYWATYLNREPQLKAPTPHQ
# T4 sequence (P18507 whole entry): T1 sequence (P18507 whole entry)
# T4 sequence (P28472 whole entry): T1 sequence (P28472 whole entry)
# [5] = molecular target: T5, GABA-A receptor; alpha-1/beta-3/gamma-2 (Homo sapiens) (UniProt P14867+P18507+P28472); test: Efficacy against recombinant human GABA-Aalpha1 receptor plus beta-3-gamma-2 expressed in L(tk-) cells by modulation of chloride ion flux relative to chlordiazepoxide; assay type: cell-based
# [6] = molecular target: T5, GABA-A receptor; alpha-1/beta-3/gamma-2 (Homo sapiens); test: Efficacy against recombinant human GABA-Aalpha1 receptor plus beta-3-gamma-2 expressed in L(tk-) cells by whole cell patch clamp method; assay type: functional, cell-based
# [7] = test system: Rattus norvegicus; test: Plasma clearance in Sprague-Dawley rat at 1 mg/kg, iv or 1 mg/kg, po; assay type: organism-based
# [8] = Volume of distribution in Sprague-Dawley rat at 1 mg/kg, iv or 1 mg/kg, po; assay type: ADME, organism-based; details: in vivo, read-out: Vdss
# [9] = Oral bioavailability in Sprague-Dawley rat at 1 mg/kg, iv or 1 mg/kg, po; assay type: ADME, organism-based; details: in vivo
# [10] = Half life in Beagle dog at 1 mg/kg, iv or 1 mg/kg, po; assay type: ADME, organism-based, Canis lupus familiaris; details: in vivo
# [11] = Half life in Sprague-Dawley rat at 1 mg/kg, iv or 1 mg/kg, po; assay type: ADME, organism-based; details: in vivo
# [12] = molecular target: T6, GABA-A receptor; alpha-2/beta-3/gamma-2 (Homo sapiens, UniProt P18507+P28472+P47869); test: Displacement of [3H]Ro 15-1788 from recombinant human GABA-Aalpha2 receptor plus beta-3-gamma-2 expressed in mouse L(tk-) cells; assay type: cell-based
# T6 sequence (P18507 whole entry): T1 sequence (P18507 whole entry)
# T6 sequence (P28472 whole entry): T1 sequence (P28472 whole entry)
# T6 sequence (P47869 whole entry): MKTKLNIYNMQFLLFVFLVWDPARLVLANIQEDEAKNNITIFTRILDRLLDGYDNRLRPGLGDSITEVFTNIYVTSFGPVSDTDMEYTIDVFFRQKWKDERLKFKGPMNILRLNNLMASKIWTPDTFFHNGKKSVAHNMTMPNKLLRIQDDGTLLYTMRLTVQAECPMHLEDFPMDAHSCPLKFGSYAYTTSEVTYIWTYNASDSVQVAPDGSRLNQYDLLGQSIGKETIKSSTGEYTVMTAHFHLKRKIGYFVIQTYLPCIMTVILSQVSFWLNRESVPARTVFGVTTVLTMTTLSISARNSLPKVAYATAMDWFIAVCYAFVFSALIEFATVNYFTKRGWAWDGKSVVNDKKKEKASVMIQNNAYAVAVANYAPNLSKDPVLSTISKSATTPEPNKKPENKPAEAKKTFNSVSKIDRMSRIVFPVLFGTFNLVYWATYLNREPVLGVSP
# [13] = molecular target: GABA-A receptor; alpha-5/beta-3/gamma-2 (Homo sapiens) (UniProt P18507+P28472+P31644); test: Efficacy against recombinant human GABA-Aalpha5 receptor plus beta3gamma2 expressed in L(tk-) cells by whole cell patch clamp method relative to chlordiazepoxide; assay type: functional, cell-based
# [14] = Volume of distribution in Beagle dog at 1 mg/kg, iv or 1 mg/kg, po; assay type: ADME, organism-based, Canis lupus familiaris; details: in vivo, read-out: Vdss
# [15] = Oral bioavailability in Beagle dog at 1 mg/kg, iv or 1 mg/kg, po; assay type: ADME, organism-based, Canis lupus familiaris; details: in vivo
# [16] = Plasma clearance in Beagle dog at 1 mg/kg, iv or 1 mg/kg, po; assay type: ADME, organism-based, Canis lupus familiaris
# [17] = molecular target: GABA-A receptor; alpha-2/beta-3/gamma-2 (Homo sapiens) (UniProt P18507+P28472+P47869); test: Efficacy against recombinant human GABA-Aalpha2 receptor plus beta-3-gamma-2 expressed in L(tk-) cells by whole cell patch clamp method relative to chlordiazepoxide; assay type: functional, cell-based
# [18] = molecular target: T2, GABA-A receptor; alpha-3/beta-3/gamma-2 (Homo sapiens); test: Efficacy against recombinant human GABA-Aalpha3 receptor plus beta-3-gamma-2 expressed in L(tk-) cells by whole cell patch clamp method relative to chlordiazepoxide; assay type: functional, cell-based
SMILES,pKi [1],Efficacy [2],pKi [3],pKi [4],Efficacy [5],Efficacy [6],Vd [8],bioavailability [9],half-life [10],half-life [11],pKi [12],Efficacy [13],Vd [14],bioavailability [15],clearance [16],Efficacy [17],Efficacy [18],CL (mL.min-1.kg-1) [7]
CC(C)(O)c1ccn2c(-c3ccc(F)c(-c4ncccc4F)c3)cnc2n1,9.38,0.68,8.91,9.10,0.44,–,–,–,–,–,–,–,–,–,–,–,–,–
CC(C)(O)c1ccn2c(-c3ccc(F)c(-c4ncc(F)cc4F)c3)cnc2n1,8.42,0.21,8.95,8.75,0.18,–,–,–,–,–,–,–,–,–,–,–,–,–
CC(C)(O)c1ccn2c(-c3ccc(F)c(-c4ccncc4)c3)cnc2n1,8.65,0.47,9.51,9.17,0.18,0.42,–,–,–,–,–,–,–,–,–,–,–,–
CC(C)(O)c1ccn2c(-c3ccc(F)c(-c4ccc(F)cn4)c3)cnc2n1,8.71,0.57,9.38,8.80,0.38,0.4,–,–,–,–,–,–,–,–,–,–,–,–
CC(C)(O)c1cnn2c(-c3ccc(F)c(-c4ncncc4C#N)c3)cnc2n1,8.48,–,–,9.17,–,0.01,–,–,–,–,–,–,–,–,–,–,0.34,–
CC(C)(O)c1cnn2c(-c3ccc(F)c(-c4ncc(F)cc4F)c3)cnc2n1,8.35,–,8.57,9.17,–,0,2.2 L/kg,69%,–,22 h,8.46,0.09,2.3 L/kg,64%,0.5 mL/min/kg,0.39,0.5,1.2
CC(C)(O)c1ccn2c(-c3ccc(F)c(-c4ccncc4C#N)c3)cnc2n1,9.55,0.59,9.85,9.22,0.3,–,–,–,–,–,–,–,–,–,–,–,–,–
CC(C)(O)c1ccn2c(-c3ccc(F)c(-c4ncccc4C#N)c3)cnc2n1,8.44,0.52,9.17,8.84,0.26,–,–,–,–,–,–,–,–,–,–,–,–,–

# Further lines, with some results ahead:
pKi [1],Efficacy [2],pKi [3],pKi [4],Efficacy [5],Efficacy [6],Vd [8],bioavailability [9],half-life [10],half-life [11],pKi [12],Efficacy [13],Vd [14],bioavailability [15],clearance [16],Efficacy [17],Efficacy [18],SMILES,CL (mL.min-1.kg-1) [7]
8.02,–,8.03,8.89,–,0.01,1.7 L/kg,102%,9.7 h,7.9 h,8.07,0.2,1.5 L/kg,99%,2.2 mL/min/kg,0.37,0.69,CC(C)(O)c1cnn2c(-c3ccc(F)c(-c4ncccc4C#N)c3)cnc2n1,2.4
8.56,–,8.91,8.84,–,0.15,–,–,–,–,8.64,–,–,–,–,–,0.5,CC(C)(O)c1cnn2c(-c3ccc(F)c(-c4ccc(F)cn4)c3)cnc2n1,–
8.47,–,8.80,8.70,–,0.24,–,–,–,–,–,–,–,–,–,–,0.52,CC(C)(O)c1cnn2c(-c3ccc(F)c(-c4ncccc4F)c3)cnc2n1,–
9.28,–,9.30,9.26,–,0.06,–,–,–,–,9.04,–,–,–,–,–,–,CC(C)(O)c1cnn2c(-c3ccc(F)c(-c4ccncc4)c3)cnc2n1,–
–,0.5,–,–,0.06,0.05,1 L/kg,–,1 h,–,–,–,0.6 L/kg,46%,8.1 mL/min/kg,–,0.53,CC(C)(O)c1ccn2c(-c3ccc(F)c(-c4cccnc4)c3)cnc2n1,9.1
8.97,–,9.49,9.12,–,0,–,–,–,–,8.81,0.41,–,–,–,0.23,0.37,CC(C)(O)c1cnn2c(-c3ccc(F)c(-c4ccncc4C#N)c3)cnc2n1,–
8.79,–,9.30,9.09,–,0,–,–,–,–,–,–,–,–,–,–,0.24,CC(C)(O)c1cnn2c(-c3ccc(F)c(-c4cccnc4)c3)cnc2n1,–
